# Laboratory results reported in patent publication US11319343B2, “Method of treatment” (ROYAL MELBOURNE INSTITUTE OF TECHNOLOGY, priority 2017, dated 2022).
# Residues, ends and D or L forms follow the SMILES beside them. No end group written: not given here.
# Assays:
# [1] = test system: HKx31 influenza A virus; conditions: mouse, in vivo
# [2] = biological target: T1, TLR7 (Mus musculus, UniProt P58681); assay type: cell-based; conditions: for IFN-β, IL-1β, TNF-α and IL-6 expression in response to imiquimod: apocynin 300 μM pre-treatment, SOD 300 U/mL (basal or imiquimod-stimulated), catalase 1000 U/mL
# T1 construct: endogenous in cells; host or cells: immortalized bone marrow-derived macrophages (BMDMs) or RAW264.7 cells
# T1 sequence (P58681 27-1050): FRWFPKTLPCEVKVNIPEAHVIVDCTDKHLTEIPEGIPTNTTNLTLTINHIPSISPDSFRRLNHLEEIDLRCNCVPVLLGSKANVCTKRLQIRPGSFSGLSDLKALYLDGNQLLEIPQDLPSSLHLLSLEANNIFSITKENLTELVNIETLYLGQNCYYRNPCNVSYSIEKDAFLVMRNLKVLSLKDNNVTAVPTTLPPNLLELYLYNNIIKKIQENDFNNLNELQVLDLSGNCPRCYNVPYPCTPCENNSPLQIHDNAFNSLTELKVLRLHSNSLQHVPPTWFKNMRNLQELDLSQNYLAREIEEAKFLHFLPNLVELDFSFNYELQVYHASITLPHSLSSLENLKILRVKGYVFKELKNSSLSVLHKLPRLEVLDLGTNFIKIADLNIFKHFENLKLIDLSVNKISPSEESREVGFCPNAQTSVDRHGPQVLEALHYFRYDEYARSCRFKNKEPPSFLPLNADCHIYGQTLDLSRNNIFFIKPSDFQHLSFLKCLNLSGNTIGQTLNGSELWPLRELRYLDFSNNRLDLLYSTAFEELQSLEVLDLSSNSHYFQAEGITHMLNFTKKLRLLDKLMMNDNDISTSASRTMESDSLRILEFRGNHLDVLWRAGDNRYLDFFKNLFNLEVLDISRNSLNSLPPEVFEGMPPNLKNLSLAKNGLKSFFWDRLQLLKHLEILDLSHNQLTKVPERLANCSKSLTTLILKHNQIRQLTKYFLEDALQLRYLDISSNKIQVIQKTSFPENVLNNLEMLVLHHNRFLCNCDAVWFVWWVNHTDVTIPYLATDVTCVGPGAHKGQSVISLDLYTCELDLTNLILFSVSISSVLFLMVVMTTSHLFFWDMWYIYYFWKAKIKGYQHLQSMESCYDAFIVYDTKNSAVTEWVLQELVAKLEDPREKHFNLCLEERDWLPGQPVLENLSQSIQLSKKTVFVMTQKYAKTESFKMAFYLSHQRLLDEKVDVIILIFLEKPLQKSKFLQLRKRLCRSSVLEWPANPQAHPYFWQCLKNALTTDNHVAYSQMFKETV
# [3] = test system: TLR3; assay type: cell-based, mouse; conditions: poly I:C 25 μg/mL; apocynin pre-treatment
# [4] = test system: TLR9; assay type: cell-based, mouse; conditions: CpG 10 μg/mL; apocynin
# [5] = biological target: T1, TLR7; assay: TLR7 agonist response (cytokine expression) in bone marrow derived macrophages with C98i peptides; assay type: cell-based; conditions: for inhibition of TLR7 agonist, imiquimod, response in vitro (IL-6 mRNA expression): peptides 100 μM + 10 μg/ml imiquimod, no TAT
# [6] = test system: NOX2 oxidase; assay: NOX2 oxidase assembly (NOX2-p47phox association), confocal fluorescence microscopy; conditions: pre-treatment: Dynasore 100 μM, bafilomycin A 100 nM, PD98059 30 μM
# [7] = test system: influenza A virus strain HKx31 (H3N2); assay type: cell-based
# [8] = test system: mouse primary alveolar macrophages; assay type: cell-based
# [9] = Cell viability after C98i peptides; assay type: cell-based
# [10] = biological target: T2, xanthine oxidase (Bos taurus, UniProt P80457); assay: Xanthine/xanthine oxidase cell-free superoxide assay (ROS scavenging); assay type: biochemical; conditions: 1 μM
# T2 construct: purchased Sigma X1875
# T2 sequence (P80457 whole entry): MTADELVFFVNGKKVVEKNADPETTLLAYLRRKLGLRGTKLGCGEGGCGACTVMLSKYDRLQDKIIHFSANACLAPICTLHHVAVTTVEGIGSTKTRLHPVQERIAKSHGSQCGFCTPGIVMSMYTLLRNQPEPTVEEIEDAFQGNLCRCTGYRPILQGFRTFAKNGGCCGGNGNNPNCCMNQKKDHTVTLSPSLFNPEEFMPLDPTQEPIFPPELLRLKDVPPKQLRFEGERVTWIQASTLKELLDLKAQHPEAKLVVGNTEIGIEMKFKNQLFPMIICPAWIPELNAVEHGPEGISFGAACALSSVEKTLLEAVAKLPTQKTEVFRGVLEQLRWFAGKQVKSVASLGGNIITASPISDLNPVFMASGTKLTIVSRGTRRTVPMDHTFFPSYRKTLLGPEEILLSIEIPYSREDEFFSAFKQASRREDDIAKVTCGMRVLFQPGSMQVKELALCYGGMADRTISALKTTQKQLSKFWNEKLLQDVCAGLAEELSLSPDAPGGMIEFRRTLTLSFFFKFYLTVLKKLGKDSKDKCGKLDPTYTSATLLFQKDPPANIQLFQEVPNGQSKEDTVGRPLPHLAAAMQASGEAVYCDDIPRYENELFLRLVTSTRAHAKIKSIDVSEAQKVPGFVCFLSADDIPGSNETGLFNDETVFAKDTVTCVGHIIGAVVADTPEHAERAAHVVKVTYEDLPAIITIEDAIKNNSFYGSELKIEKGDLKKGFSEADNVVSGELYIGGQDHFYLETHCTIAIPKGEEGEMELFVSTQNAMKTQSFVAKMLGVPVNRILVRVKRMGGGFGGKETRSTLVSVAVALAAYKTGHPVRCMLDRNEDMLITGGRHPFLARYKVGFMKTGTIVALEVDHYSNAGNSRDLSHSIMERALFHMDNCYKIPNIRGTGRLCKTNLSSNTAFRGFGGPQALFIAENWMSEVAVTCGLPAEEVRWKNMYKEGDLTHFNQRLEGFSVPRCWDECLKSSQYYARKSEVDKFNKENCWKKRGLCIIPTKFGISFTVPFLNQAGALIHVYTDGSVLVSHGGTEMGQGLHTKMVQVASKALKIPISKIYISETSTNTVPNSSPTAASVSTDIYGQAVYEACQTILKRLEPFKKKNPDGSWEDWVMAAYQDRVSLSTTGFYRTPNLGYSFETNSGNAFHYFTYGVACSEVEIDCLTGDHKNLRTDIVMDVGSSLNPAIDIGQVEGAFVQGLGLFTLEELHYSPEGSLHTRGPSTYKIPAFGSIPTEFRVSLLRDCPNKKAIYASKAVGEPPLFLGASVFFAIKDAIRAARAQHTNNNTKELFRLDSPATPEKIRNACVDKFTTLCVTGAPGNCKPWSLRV
# Procedure: Briefly, Krebs-HEPES buffer containing L-O12 (100 μM) was added into a 96-well Optiview plate. Following this, 0.1% w/v DMSO, unconjugated gp91dstat (Ugp91ds-TAT, 1 μM) or cholestanol-conjugated gp91ds-TAT (1 μM) were added in combination with Xanthine (100 μM). Immediately after xanthine oxidase (0.03 U/mL) was added, photon emission [relative light units (RLU)/s] was detected using the Chameleon (Trademark) luminescence detector (Hidex, model 425105, Finland) and recorded from each well for 1 s over 60 cycles. Individual data points for each group were derived from the average values of the three replicates minus the respective blank controls. Data are represented as raw values.
# [11] = test system: pERK1/2; assay: Cytosolic pERK1/2 activity, FRET biosensor; assay type: cell-based, mouse; conditions: TLR7-dependent manner
# [12] = test system: TLR7 responses; assay type: in vivo; conditions: imiquimod 50 μg/mouse intranasally, 24 h
# [13] = test system: PKC; assay: Cytosolic PKC activity, FRET biosensor cytoCKAR; assay type: cell-based, mouse; conditions: WT macrophages, imiquimod, within 5 min
# [14] = test system: human alveolar macrophages; assay type: cell-based; conditions: imiquimod 10 μg/mL, AMs from human
# [15] = test system: macrophage mitochondrial superoxide; assay: Macrophage mitochondrial superoxide production; assay type: cell-based; conditions: TLR7 activation with imiquimod
# [16] = test system: TLR7; assay type: cell-based, mouse
molecule,measurement,setting,value
YGRKK-RRQRR-RCSTR-IRRQL-NH2 [Ugp91ds-TAT],decrease in lung influenza A viral burden,[1],"~10,000 fold"
same,lung IFN-β mRNA levels compared to the control virus group,[1],failed to do so
same,superoxide production in BALF inflammatory cells,[1],almost abolished
same,weight loss caused by influenza A virus at day 3,[1],significantly reduced the weight loss
"COc1cc(C(C)=O)ccc1O [apocynin, 4′-Hydroxy-3′-methoxy acetophenone]","IFN-β, IL-1β, TNF-α and IL-6 expression in response to imiquimod",[2]; WT macrophages,significantly enhanced
same,"IFN-β, IL-1β, TNF-α and IL-6 expression in response to poly I:C",[3],suppressed
same,"increases in IFN-β, IL-1β, TNF-α and IL-6 triggered by CpG",[4],unaffected
RANA-NH2,"inhibition of TLR7 agonist, imiquimod, response in vitro (IL-6 mRNA expression)",[5],none
O=C(N/N=C/c1ccc(O)c(O)c1)c1cc2ccccc2cc1O [Dynasore],catalase-dependent increase in cytokines,[2]; WT macrophages treated with Dynasore (100 μM),significantly suppressed
same,co-location (association) of NOX2 and p47phox caused by influenza virus,[6],reduced
same,influenza nucleoprotein (NP) fluorescence,[7],almost abolished
COc1cccc(-c2cc(=O)c3ccccc3o2)c1N [PD98059],endosomal ROS production (OxyBURST) in response to influenza A virus,[8],did not influence
same,co-location (association) of NOX2 and p47phox caused by influenza virus,[6],did not influence
YGRKKRRQRRRCLVPNDCRLV-NH2 [scrambled C98i],inhibition of TLR7 agonist (imiquimod),[5]; scrambled sequence with TAT,not able to inhibit
CC(C)C[C@H](NC(=O)[C@@H](NC(=O)[C@@H]1CCCN1C(=O)[C@@H](NC(=O)[C@H](CS)NC(=O)[C@H](CC(N)=O)NC(=O)[C@H](CS)NC(=O)[C@H](CCCNC(=N)N)NC(=O)[C@H](CC(C)C)NC(=O)[C@H](CC(=O)O)NC(=O)[C@H](CCCNC(=N)N)NC(=O)[C@H](CCCNC(=N)N)NC(=O)[C@H](CCCNC(=N)N)NC(=O)[C@H](CCC(N)=O)NC(=O)[C@H](CCCNC(=N)N)NC(=O)[C@H](CCCNC(=N)N)NC(=O)[C@H](CCCCN)NC(=O)[C@H](CCCCN)NC(=O)[C@H](CCCNC(=N)N)NC(=O)CNC(=O)[C@@H](N)Cc1ccc(O)cc1)C(C)C)C(C)C)C(N)=O [C98i] (H-YGRKKRRQRRRDLRCNCVPVL-NH2),cell viability,[9],no adverse effect
RANC-NH2,"inhibition of TLR7 agonist, imiquimod, response in vitro (IL-6 mRNA expression)",[5],none
Ac-Asp(OChol)-PEG4-PEG3-PEG4-gp91-NH2 [Cgp91ds-TAT],ROS scavenging properties,[10],not attributed to enhanced ROS scavenging properties
same,airway inflammation,[1],almost abolished
same,decrease in lung influenza A viral burden,[1],"~10,000 fold"
same,lung IFN-β mRNA levels compared to the control virus group,[1],significantly increased
same,reduction in airways inflammation,[1],~40%
same,superoxide production in BALF inflammatory cells,[1],almost abolished
same,weight loss caused by influenza A virus at day 3,[1],significantly reduced the weight loss
"CC(C)C[C@H](NC(=O)[C@@H](NC(=O)[C@@H]1CCCN1C(=O)[C@@H](NC(=O)[C@H](CS)NC(=O)[C@H](CC(N)=O)NC(=O)[C@H](CS)NC(=O)[C@H](CCCNC(=N)N)NC(=O)[C@H](CC(C)C)NC(=O)[C@@H](N)CC(=O)O)C(C)C)C(C)C)C(N)=O [C98i no TAT, DLRCNCVPVL-NH2] (H-DLRCNCVPVL-NH2)",cell viability,[9],no adverse effect
RCNC—NH2 (RCNC-NH2; cysteine pairing not given here),"inhibition of TLR7 agonist, imiquimod, response in vitro (IL-6 mRNA expression)",[5],none
CO/C1=C\C(C)=C\[C@@H](C)[C@@H](O)[C@@H](C)C/C(C)=C/C=C/[C@H](OC)[C@@H]([C@@H](C)[C@@H](O)[C@H](C)[C@@]2(O)C[C@@H](O)[C@H](C)[C@@H](C(C)C)O2)OC1=O [bafilomycin A],NOX2 dependent ROS production in response to virus infection and to imiquimod,[8],abolished
same,endosomal ROS production (OxyBURST) in response to influenza A virus,[8],abolished the LysoTracker fluorescence and endosomal ROS production
same,co-location (association) of NOX2 and p47phox caused by influenza virus,[6],reduced
CC(C)Cn1cnc2c(N)nc3ccccc3c21 [imiquimod],"IFN-β, IL-1β, TNF-α and IL-6 expression","[2]; imiquimod alone, WT macrophages",significant elevation
same,cytosolic pERK1/2,[11],increased cytosolic pERK1/2
same,"lung IFN-β, IL-1β, IL-6 and TNF-α",[12]; NOX2−/y mice,elevated levels
same,airway inflammation,[12]; WT and NOX2−/y mice,no discernible alterations
same,endosomal ROS production caused by the agonist,[8],markedly increased endosomal ROS
same,cytosolic PKC activity,[13],elevated cytosolic PKC activity
same,endosomal ROS production caused by the agonist,[14],markedly increased endosomal ROS
same,macrophage mitochondrial superoxide production,[15],failed to increase
catalase,IFN-β and IL-1β expression,"[2]; 1 hr pulse catalase 1000 U/mL, after 24 h, WT macrophages",significant elevations
same,"IFN-β, IL-1β, TNF-α and IL-6 expression in response to imiquimod",[2]; WT macrophages,significantly increased
same,cytokine expression in cells expressing mutated TLR7,[16],little or no effect
same,"TLR7, TREML4 or NLRP3 expression",[16]; catalase,no effect
same,cytokine expression in cells with WT TLR7 or TLR7C445A,"[16]; catalase 1000 U/mL, transfected TLR7−/− macrophages",markedly increased
RCNA-NH2,"inhibition of TLR7 agonist, imiquimod, response in vitro (IL-6 mRNA expression)",[5],none
CC(=O)c1ccc2c(c1)Nc1ccccc1S2 [ML171],endosomal ROS production (OxyBURST) in response to influenza A virus,[8],unaffected
